Where two headings read alike, the source gives them in different places.
Assay: Solubility in Dowanol PM (2-methoxy propanol)
Type: physicochemical
Details: 20 °C, organic solvent or mixture
Description: The imagable layers comprise a radiation-sensitive imaging composition that includes one or more infrared radiation absorbing dyes. […] 2-Methoxy propanol (or propylene glycol methyl ether) is available from various commercial sources, and for example, can be obtained in Dowanol® PM. In some embodiments, the ion exchange products formed between the infrared radiation absorbing cyanine cation and any counter anion from any other components, for example, a free radical initiator, in the imagable layer.
Dowanol® PM is propylene glycol methyl ether that is available from Dow Chemical.

[1] = Dowanol PM (2-methoxy propanol), Table I, read-out: S1, Solubility of IR Dye in Dowanol PM
[2] = tetraphenylborate salt of the dye cation, Dowanol PM, Table I, read-out: S2, Solubility of the tetraphenylborate salt of the IR cation in Dowanol PM
[3] = Dowanol PM (2-methoxy propanol), Table II, read-out: S1, solubility of IR Dye in Dowanol PM
[4] = Dowanol PM (2-methoxy propanol), Table IV, read-out: S1, solubility of IR Dye in Dowanol PM
[5] = tetraphenyl borate salt of the dye cation, Dowanol PM, Table II, read-out: S2, solubility of the tetraphenyl borate salt of the IR cation in Dowanol PM
[6] = tetraphenyl borate salt of the dye cation, Dowanol PM, Table IV, read-out: S2, solubility of the tetraphenyl borate salt of the IR cation in Dowanol PM

| solubility [1] [mg/mL] | solubility [2] [mg/mL] | solubility [3] [mg/mL] | solubility [4] [mg/mL] | solubility [5] [mg/mL] | solubility [6] [mg/mL] | SMILES |
| --- | --- | --- | --- | --- | --- | --- |
| 97 | 21 | – | – | – | – | CN1/C(=C/C=C2\CCCC(/C=C/C3=[N+](C)c4ccccc4C3(C)C)=C2Sc2ccc(C(C)(C)C)cc2)C(C)(C)c2ccccc21 [compound 4] |
| – | 4.8 | 128 | 128 | 4.8 | 4.8 | C=Cc1ccc(CSc2nnc(SC3=C(/C=C/C4=[N+](C)c5ccccc5C4(C)C)CCC/C3=C\C=C3\N(C)c4ccccc4C3(C)C)s2)cc1 [compound 2] |
| 192 | 1.4 | 192 | 192 | 1.4 | 1.4 | CN1/C(=C/C=C2\CCCC(/C=C/C3=[N+](C)c4ccccc4C3(C)C)=C2Sc2nnnn2-c2ccccc2)C(C)(C)c2ccccc21 [compound 1] |

Source: US9029063B2, “Negative-working lithographic printing plate precursors” (Eastman Kodak Company, priority 2011, dated 2015)
